Assays:
[1] = target: FAAH (Mus musculus (Mouse), UniProt O08914); assay: In vitro competitive activity-based protein profiling, FAAH (mouse); format: biochemical; conditions: for inhibition at 1 µM: read-out: FAAH % inh. 1 μM (mouse)
Summary of the method: (§1)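 Residual MAGL and FAAH activity quantified from fluorescent gel bands after SDS-PAGE. Before that, FP-Rh or HT-01 probe (50 μM stock) labelled for 30 min at 37 °C, following 30 min inhibitor preincubation. Mouse assays used brain membrane fraction or cell lysates, human used prefrontal cortex or cell membranes, all at 1.0 mg/mL protein.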

[2] = target: T1, MAGL (Mus musculus (Mouse), UniProt O35678); assay: Mouse brain proteomes from inhibitor treated mice (oral gavage, 4 h), MAGL; format: in vivo; conditions: read-out: MAGL % inh. 5 mg/kg (mouse)
Method: Preparation of Mouse Brain Proteomes from Inhibitor Treated Mice.
Inhibitors were administered to wild-type C57Bl/6J by oral gavage in a vehicle of polyethylene glycol. Each animal was sacrificed 4 h following administration and brain proteomes were prepared and analyzed according to previously established methods (See Niphakis, M. J., et al. (2011) ACS Chem. Neurosci. and Long, J. Z., et al. Nat. Chem. Biol. 5:37-44).

[3] = target: T1, MAGL; assay: In vitro competitive activity-based protein profiling, MAGL (mouse); format: biochemical; conditions: for inhibition at 1 µM: read-out: MAGL % inh. 1 μM (mouse)
Summary of the method: as §1

T1 sequence (O35678 whole entry): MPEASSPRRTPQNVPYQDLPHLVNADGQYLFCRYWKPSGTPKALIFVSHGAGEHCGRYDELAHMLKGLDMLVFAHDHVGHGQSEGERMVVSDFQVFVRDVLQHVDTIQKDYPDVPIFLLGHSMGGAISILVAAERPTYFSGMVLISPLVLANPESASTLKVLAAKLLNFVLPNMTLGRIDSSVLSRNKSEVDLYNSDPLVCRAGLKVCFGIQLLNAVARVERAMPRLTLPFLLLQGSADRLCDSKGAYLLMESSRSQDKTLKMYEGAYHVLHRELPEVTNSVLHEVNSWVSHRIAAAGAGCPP
FAAH, sequence (O08914 whole entry): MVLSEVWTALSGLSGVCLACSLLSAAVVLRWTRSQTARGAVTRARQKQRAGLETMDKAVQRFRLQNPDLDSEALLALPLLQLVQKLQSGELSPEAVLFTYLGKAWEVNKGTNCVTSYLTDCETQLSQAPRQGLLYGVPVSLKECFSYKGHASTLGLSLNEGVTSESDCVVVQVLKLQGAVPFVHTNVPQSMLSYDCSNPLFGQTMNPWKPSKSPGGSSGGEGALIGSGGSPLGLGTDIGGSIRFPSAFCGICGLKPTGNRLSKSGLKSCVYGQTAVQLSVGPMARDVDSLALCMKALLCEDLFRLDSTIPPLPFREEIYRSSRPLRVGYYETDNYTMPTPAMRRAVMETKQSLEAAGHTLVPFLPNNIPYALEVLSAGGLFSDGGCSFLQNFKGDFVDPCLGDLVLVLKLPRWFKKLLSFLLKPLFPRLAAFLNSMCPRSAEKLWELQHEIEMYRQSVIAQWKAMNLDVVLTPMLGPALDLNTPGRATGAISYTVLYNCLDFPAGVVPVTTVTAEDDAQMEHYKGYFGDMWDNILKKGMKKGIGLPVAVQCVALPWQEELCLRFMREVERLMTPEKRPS

| inhibition at 1 µM [1] [%] | inhibition at 5 mg/kg [2] [%] | inhibition at 1 µM [3] [%] | IC50 [1] [nM] | IC50 [3] [nM] | SMILES |
| --- | --- | --- | --- | --- | --- |
| ≥ 75 | ≥ 75 | ≥ 75 |  |  | CC(=O)Nc1cnn(C(=O)N2CCC3(CCN(Cc4cc(Cl)cc(C(F)(F)F)c4)C3)CC2)c1 [Example 313, N-(1-(2-(3-chloro-5-(trifluoromethyl)benzyl)-2,8-diazaspiro[4.5]decane-8-carbonyl)-1H-pyrazol-4-yl)acetamide] |
| ≥ 75 | ≥ 75 | 50 to 75 | ≤ 100 | 100 to 1000 | CC(=O)N(C)c1cnn(C(=O)N2CCC3(CCN(Cc4ccccc4Cl)C3)C2)c1 (stereo not drawn) [Example 50, N-(1-(7-(2-chlorobenzyl)-2,7-diazaspiro[4.4]nonane-2-carbonyl)-1H-pyrazol-4-yl)-N-methylacetamide] |
| ≥ 75 | 0 to 25 | ≥ 75 | 100 to 1000 | ≤ 100 | CC(=O)N(C)c1cnn(C(=O)N2CC3CN(Cc4ccc(Oc5cncnc5)cc4Cl)CC3C2)c1 (stereo not drawn) [Example 274, N-(1-(5-(2-chloro-4-(pyrimidin-5-yloxy)benzyl)octahydropyrrolo[3,4-c]pyrrole-2-carbonyl)-1H-pyrazol-4-yl)-N-methylacetamide] |
| ≥ 75 | ≥ 75 | ≥ 75 | ≤ 100 | ≤ 100 | CS(=O)(=O)Nc1cnn(C(=O)N2CCC3(CCN(Cc4cc(Cl)cc(C(F)(F)F)c4)C3)CC2)c1 [Example 297, N-(1-(2-(3-chloro-5-(trifluoromethyl)benzyl)-2,8-diazaspiro[4.5]decane-8-carbonyl)-1H-pyrazol-4-yl)methanesulfonamide] |
| ≥ 75 | 50 to 75 | 25 to 50 | 1000 to 10000 | ≤ 100 | CS(=O)(=O)Nc1cnn(C(=O)N2CCN(Cc3ccc(N4CCCC4)cc3C(F)(F)F)CC2)c1 [Example 292, N-(1-(4-(4-(pyrrolidin-1-yl)-2-(trifluoromethyl)benzyl)piperazine-1-carbonyl)-1H-pyrazol-4-yl)methanesulfonamide] |
| ≥ 75 | ≥ 75 | ≥ 75 | ≤ 100 | ≤ 100 | CC(=O)N(C)c1cnn(C(=O)N2C[C@H]3C[C@H](N(C)Cc4ccc(Cl)cc4)C[C@H]3C2)c1 [Example 148, N-(1-(trans-5-((4-chlorobenzyl)(methyl)amino)octahydrocyclopenta[c]pyrrole-2-carbonyl)-1H-pyrazol-4-yl)-N-methylacetamide] |
| 25 to 50 | ≥ 75 | ≥ 75 | 1000 to 10000 | ≤ 100 | CC(=O)Nc1cnn(C(=O)N2CCN(Cc3ccc(C(F)(F)F)cc3N3CCCC3)CC2)c1 [Example 217, N-(1-(4-(2-(pyrrolidin-1-yl)-4-(trifluoromethyl)benzyl)piperazine-1-carbonyl)-1H-pyrazol-4-yl)acetamide] |
